Measurements from patent US5162571A, “Phenol derivatives, their production and use” (Takeda Chemical Industries, Ltd., priority 1987, dated 1992).

Columns and labels:
[1] = Extension of bleeding time; assay type: in vivo, rat; conditions: one hour before
Method: Extension of bleeding time
Method: Test compounds were administered orally to rats one hour before the experiments. The rats were anesthetized and the tail was cut at 1.5 mm from the tip. Immediately, the tail was hung down into a physiological saline warmed at 37° C. The time required from initiation to stop of bleeding (bleeding time) was measured.

[2] = biological target: T1, specific [^3 H] U-46619 binding to guinea pig platelet membrane (Cavia porcellus, UniProt A0A286Y4I8); assay: Inhibition of specific [^3 H] U-46619 binding to guinea pig platelet membrane; conditions: [^3 H] U-46619, 25° C., 30 min; read-out: IC50 (Concentration for 50% inhibition)
T1 construct: Platelet membranes were prepared according to the following procedure; from tissue; host or cells: guinea pig platelet membranes
T1 sequence (A0A286Y4I8 1-347): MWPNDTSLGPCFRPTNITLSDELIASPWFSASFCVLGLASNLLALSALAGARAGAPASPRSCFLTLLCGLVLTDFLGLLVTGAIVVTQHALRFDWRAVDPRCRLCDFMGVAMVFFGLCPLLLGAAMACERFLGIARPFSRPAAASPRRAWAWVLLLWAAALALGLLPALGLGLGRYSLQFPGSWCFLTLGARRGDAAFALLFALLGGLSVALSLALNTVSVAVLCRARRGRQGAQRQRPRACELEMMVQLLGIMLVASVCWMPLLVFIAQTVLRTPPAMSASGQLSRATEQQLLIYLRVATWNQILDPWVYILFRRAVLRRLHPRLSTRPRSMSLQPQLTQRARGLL
Method: Inhibition of specific [^3 H] U-46619 binding to guinea pig platelet membrane
Method: Blood from normal guinea pig was collected into 0.315% citrate solution containing aspirin (final concentration 1 mM) and was centrifuged at 3000 r.p.m. for […]. The PRP (platelet rich plasma) was centrifuged at 4800 r.p.m for 10 min. at 4° C. Platelet membranes were prepared according to the following procedure: In order to remove the residual plasma protein, the platelet pellet was washed once with 30 ml of buffer containing 25 mM Tris-HCl/5 mM MgCl2 (pH 7.4) and recentrifuged to pellet the platelets. The platelets were then resuspended in 20 ml of the same buffer, and the cells were disrupted by sonication. The sonication was performed on ice using a Kontes Sonicator (Vineland, N.J.). The platelets were sonicated for a total of 90 sec. with a 15 sec. burst followed by a 15 sec. intermission. The sonicated mixture was centrifuged at 100,000×g for 1 hour and the membrane fraction was suspended in the same buffer. The protein concentration was adjusted to 1 mg/ml.
The binding assay was performed at 25° C. for 30 min. One ml of the resuspended membrane fraction was incubated with […] of [^3 H] U-46619. The incubation mixture was filtered through a glass fiber membrane (GF/C, whatman) to separate the membrane bound from free [^3 H] U-46619. The membranes were quickly washed twice with 5 ml of cold buffer, mixed with 4 ml of ACS scintillation fluid and counted for [^3 H] U-46619.

[3] = tested on: U-46619 (TXA2 mimic)-induced broncho-constriction; assay: Inhibitory effect on U-46619 (TXA2 mimic)-induced broncho-constriction in guinea pig; assay type: in vivo; conditions: Cavia porcellus, ** p < 0.01; for inhibition in vivo at 5 mg/kg: po, 5 mg/kg p.o., 1 hour before U-46619
Method: Inhibitory effect on U-46619 (TXA2 mimic)-induced broncho-constrictionin guinea pig
Method: Eight male Hartley guinea pigs were used per one group. The guinea pig anesthetized with urethane (1.5 g/kg, i.p.) was fixed in a dorsal position, subjected to tracheotomy and connected to a respirator through a cannula. A side branch of the tracheal cannula was connected to a respirator (Harvard apparatus rodent respirator Type 680) at the rate of 70 strokes/min. and a constant volume of 3 to 5 ml.
Inflation pressure was kept constant at 10 cm H2 O.
After treatment with gallamine triethiodide (1 mg/kg, i.v.), U-46619 (10 μg/Kg) dissolved in a physiological saline solution was given through a carotid cannula and the airway resistance was measured by the overflow technique of Konzett-Rossler method (Konzett, H. and Rossler, R., Naunyn-Schmiedegerg's Arch, Exp. Path. Pharmak., 195, 71-74 (1940). A test compound was suspended in 5% gum arabic solution and was administered orally 1 hour before the treatment with U-46619.
Alternatively, a test compound was dissolved in aqueous 50% dimethylsulfoxide solution and administered interveneously in the dosage of 0.1 ml/100 g body weight 9 minutes before the treatment of U-46619.

[4] = tested on: vasoconstriction by PGD2 (rabbit aorta); assay: Inhibitory effect of vasoconstriction by PGD2; assay type: cell-based; conditions: Oryctolagus cuniculus; 10^-7 M; PGD2 (3×10^-6 M); n = 2; read-out: Inhibitory Rate (%)
Method: Inhibitory effect of vasoconstriction by PGD2
(§1) Method: A spiral strip of the rabbit aorta (2-3 mm wide, about 3 cm long) was suspended in Krebs-Henseleit solution under the load of 2 g. The Krebs-Henseleit solution was saturated with a mixed gas of 95% O2 -5% CO2 and warmed at 37° C. Inhibition of the contraction of the vascular strip caused by addition of PGD2 (3×10^-6 M) by pretreatment with Compound No. 13 30 minutes before was studied.

[5] = biological target: T2, Thromboxane A2 (TXA2) receptor (Oryctolagus cuniculus, UniProt Q6WQI8); assay: Thromboxane A2 (TXA2) receptor antagonism: inhibitory effect on contraction of rabbit aorta by TXA2-mimics; assay type: cell-based; conditions: U-44069 (10^-7 M)-induced contraction; for inhibition at 1 µM: 10^-6 M; for inhibition at 0.1 µM: 10^-7 M
T2 construct: contraction by TXA2 mimics U-44069 or U-46619
T2 sequence (Q6WQI8 1-233): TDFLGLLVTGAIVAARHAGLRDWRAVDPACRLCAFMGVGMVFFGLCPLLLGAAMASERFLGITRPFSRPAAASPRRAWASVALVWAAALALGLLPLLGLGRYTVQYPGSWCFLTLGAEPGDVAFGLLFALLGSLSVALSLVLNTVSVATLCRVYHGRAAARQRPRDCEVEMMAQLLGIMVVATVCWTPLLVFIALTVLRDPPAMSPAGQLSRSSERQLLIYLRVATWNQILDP
Method: Thromboxane A2 (TXA2) receptor antagonism
Inhibitory effect on contraction of rabbit aorta by thromboxan A2 (TXA2)-mimics
as §1, with “95%O2 -5%CO2” for “95% O2 -5% CO2”, “a TXA2 mimic substance U-44069^1) (10^-7” for “addition of PGD2 (3×10^-6”, “M) or U-46619^2) (3×10 ^-8 M),” for “M)”
1) U-44069: (5Z, 9α, 11α, 13E, 15S)-15-hydroxy-9,11-(epoxymethano)-prosta-5,13-dienoic acid (manufacturedby The Upjohn Company in U.S.A.)
2) U-46619: (5Z, 9α, 11α, […], 15S)-15-hydroxy-11,9-(epoxymethano)-prosta-5,13-dienoic acid (manufacturedby Cayman Chemical Company)
In Table 5, "*" represents addition of U-46619.

chorioallantoic membrane = assay: Angiogenesis inhibitory activity, shell-less chorioallantoic membrane (CAM) assay; assay type: in vivo, chick; conditions: 6 disks tested
Method: Angiogenesis inhibitory activity
Method: Shell-less chorioallantoic membrane assay.
The shell-less chorioallantoic membrane (CAM) assay was carried out by the method of Taylor and Folkman [S. Taylor and J. Folkman; Nature, 297, 307 (1982)] with a slight modification. Thus, 3-day chick embryos were removed from their shells and cultured in plastic cups on hammocks of plastic wrap. Samples along with ECGS (endothelial cell growth supplements, Collaborative Research Inc.) were placed on plastic disks (polypropylene, 6 mm in diameter). After the solution had dried, the disks were placed on the CAM of 10-day embryos. Three days later, inhibition of the neovascular formation by fumagillin was observed under a stereoscope (×20, SMZ-10, Nikon), and compared to the control disk containing ECGS as a stimulant of angiogenesis without samples.

[6] = tested on: lipid peroxides production in rat brain homogenates; assay: Inhibitory action on lipid peroxides production in rat brain homogenates; assay type: biochemical; conditions: 10^-5 M
Method: Inhibitory action on lipid peroxides production in rat brain homogenates
Method: The male SD rat brain tissue was used as 5% homogenate in phosphate-buffered solution. After incubation of the homogenate for 1 hour at 37° C., the amount of lipid peroxides produced was determined by the thiobarbituric acid method according to the description of Ohkawa et al. (Analytical Biochemistry, 95: 551, 1979)
Test compounds were used as a solution of dimethylsulfoxide. The inhibitory action on lipid peroxide production was expressed as a % inhibition as compared with the amount of production in the vehicle group.

## Cc1c(O)c(C(CCCCCC(=O)O)c2ccc(F)cc2)c(C)c2c1CCC2 (stereo not shown) [Compound 21]
[1]; 10 mg/kg oral, control 173 ± 23, * p < 0.05
  Bleeding time: 235 ± 38 s
[1]; 30 mg/kg oral, control 164 ± 27, ** p < 0.01
  Bleeding time: 529 ± 154 s
[2]
  IC50: 49 nM
[3]; iv, 0.31 mg/kg i.v., 9 minutes before U-46619
  inhibition in vivo at 0.31 mg/kg: 51%
[3]
  inhibition in vivo at 5 mg/kg: 76%
[4]
  inhibition at 0.1 µM: 54%
[5]
  inhibition at 1 µM: 99%
  inhibition at 0.1 µM: 5%

## Cc1cc(C)c(O)c(C(CCCCCC(=O)O)c2ccc(F)cc2)c1C (stereo not shown) [Compound 1, 7-(4-fluorophenyl)-7-(2-hydroxy-3,5,6-trimethylphenyl)heptanoic acid]
Chorioallantoic membrane; 4 μg
  Number of disks showing angiogenesis inhibition: 3
Chorioallantoic membrane; 20 μg
  Number of disks showing angiogenesis inhibition: 6
[2]
  IC50: 240 nM
[6]
  Inhibition (%): 92.0%
[3]
  inhibition in vivo at 5 mg/kg: 55%
[5]; 10^-5 M
  inhibition at 10 µM: 100%
[5]
  inhibition at 1 µM: 56%

## Cc1c(C)c(C=O)c(C)c(C(CCCCCC(=O)O)c2ccc(F)cc2)c1O (stereo not shown) [Compound 27, 7-(4-fluorophenyl)-7-(3-formyl-6-hydroxy-2,4,5-trimethylphenyl)heptanoic acid]
[2]
  IC50: 2.3 nM
[3]
  inhibition in vivo at 5 mg/kg: 84%
[4]
  inhibition at 0.1 µM: 100%
[5]
  inhibition at 0.1 µM: 98%
